Experimental findings from patent publication US8728771B2, “L-succinylaminoacylase and process for producing L-amino acid using it” (Toyo Boseki Kabushiki Kaisha, priority 2008, dated 2014) are described below.

A value given as a limit tells only on which side of the number the result lay.

Series [1] deals with L-succinylaminoacylase of the present invention. Kind of series: Comparative experiment for enzymatic activity (ii), enzyme of the present invention (Example 7). It is filed as biochemical, Geobacillus stearothermophilus IFO 12983 strain. Conditions: 4 hours, 50° C., pH 7.5, cobalt acetate. The protocol:
(§1) Each of N-succinyl-DL-4-bromophenylalanine, N-succinyl-DL-biphenylalanine, N-succinyl-DL-3,4-dichlorophenylalanine, N-succinyl-DL-cyclohexylglycine, and N-succinyl-DL-tert-leucine synthesized in the above (3) was used to prepare an amino acid solution of 10% by weight (pH 7.5). Mixed solution of 0.25 ml of 0.1M HEPES-NaOH buffer (pH 7.5), 0.025 ml of 0.1M cobalt acetate solution, 0.5 ml of each amino acid solution and 4.2 ml of distilled water was prepared. To the resulting solution was added 0.025 ml of a solution of the L-succinylaminoacylase disclosed in Example 1 of Patent Document 3 made into 5 mg/ml or a solution of the L-succinylaminoacylase of the present invention prepared in the above Example 1 made into 5 mg/ml. The resulting reaction solution was subjected to a reaction for 4 hours with stirring at 50° C. After completion of the reaction, a sample was collected therefrom and subjected to an HPLC measurement under the same condition as in Example 2 to calculate the conversion rate into each of the L-amino acids corresponding to N-succinyl-DL-4-bromophenylalanine, N-succinyl-DL-biphenylalanine, N-succinyl-DL-3,4-dichlorophenylalanine, N-succinyl-DL-cyclohexylglycine, and N-succinyl-DL-tert-leucine.

For series [2], the system named is L-succinylaminoacylase disclosed in Patent Document 3. The series can be described thus: Comparative experiment for enzymatic activity (ii), enzyme of Patent Document 3 (Example 7). It counts as biochemical, Geobacillus stearothermophilus NCA 1503 strain. The conditions noted are these: 4 hours, 50° C., pH 7.5, cobalt acetate. Here is the method:
as §1

Series [3] has as its system L-succinylaminoacylase of the present invention. The series can be described thus: Hydrolysis of N-succinyl-DL-amino acid to L-amino acid by L-succinylaminoacylase, HPLC (Examples 2 and 3). It counts as biochemical, Geobacillus stearothermophilus IFO 12983 strain. The conditions noted are these: for Yield (%) of corresponding L-amino acid: 10% by weight substrate, 96 hours, same condition as in Example 2 (57° C., 0.5 mM CoCl2). Here is the method:
The N-succinyl-DL-tert-leucine synthesized in the above (1) was dissolved in distilled water and its pH was adjusted using 0.1N sodium hydroxide (manufactured by Nacalai tesque) to prepare a 5% by weight solution of N-succinyl-DL-tert-leucine (pH 7 to 8). […] This reaction solution was kept at 57° C. for 144 hours with stirring.
Column: Inertsil ODS-2 (particle size: 5 μm; 4.6 mm inner diameter×250 mm length) manufactured by GL Science
Eluant: aqueous solution of phosphate (pH 2.3)/acetonitrile for HPLC=80:20
Column temperature: 40° C.
The reaction was carried out for 96 hours under the same condition as in Example 2 using N-succinyl-DL-valine, N-succinyl-DL-phenylalanine, N-succinyl-DL-tryptophan, N-succinyl-DL-asparagine, N-succinyl-DL-serine, N-succinyl-DL-tyrosine, or N-succinyl-DL-cyclohexylglycine synthesized in the above (2) and (3) instead of N-succinyl-DL-tert-leucine. However, concentration of each N-succinyl-DL-amino acid was made 10% by weight. After completion of the reaction, a sample was collected therefrom and subjected an HPLC measurement under the same condition as in Example 2 to calculate the conversion rate into each L-amino acid corresponding to N-succinyl-DL-valine, N-succinyl-DL-phenylalanine, N-succinyl-DL-tryptophan, N-succinyl-DL-asparagine, N-succinyl-DL-serine, N-succinyl-DL-tyrosine, and N-succinyl-DL-cyclohexylglycine.

Series [4] has as its system L-succinylaminoacylase of the present invention and N-succinylamino acid racemase. Kind of series: Synthesis of L-tert-leucine using L-succinylaminoacylase and N-succinylamino acid racemase (ii) (Example 5). It counts as biochemical. Conditions: 1% by weight substrate, racemase prepared in (2) added, up to 120 hours. Here is the method:
The same reaction as in Example 4 was carried out for 120 hours except that the product prepared in the above (2) was used as an N-succinylamino acid racemase. The sample was collected after 24 hours, 48 hours and 120 hours from the start of the reaction and subjected to an HPLC measurement under the same condition as in Example 2 to confirm the synthesis of L-tert-leucine from N-succinyl-DL-tert-leucine.

For series [5] the test system is unchanged. The series can be described thus: Synthesis of L-tert-leucine using L-succinylaminoacylase and N-succinylamino acid racemase (i) (Example 4). Conditions: 1% by weight substrate, racemase prepared in (1) added, 90 hours; 100% is the theoretically highest yield. It is filed as biochemical, Geobacillus stearothermophilus. Here is the method: The reaction was carried out for 90 hours under the same condition as in Example 2 except that the concentration of the N-succinyl-DL-tert-leucine solution was made 1% by weight and that 0.1 ml of a 9.6 mg/ml solution of N-succinylamino acid racemase prepared in the above (1) was previously added to the reaction solution. After completion of the reaction, the sample was collected therefrom and subjected to an HPLC measurement under the same condition as in Example 2 to calculate the yield of L-tert-leucine whereupon the yield was not lower than 90% and the value being nearly equal to 100% which is the theoretically highest yield was achieved.

The test system of series [6] is L-succinylaminoacylase of the present invention. Kind of series: Comparative experiment for enzymatic activity (i), with racemase (Example 6). It is filed as biochemical, Geobacillus stearothermophilus IFO 12983 strain. The conditions noted are these: 5% by weight substrate, racemase (2), 50° C., up to 144 hours, FIG. 3. Here is the method:
The N-succinyl-DL-tert-leucine synthesized in the above (1) was dissolved in distilled water and its pH was adjusted using 0.1N sodium hydroxide (manufactured by Nacalai tesque) to prepare a 5% by weight solution of N-succinyl-DL-tert-leucine (pH 7 to 8). To 10 ml of this solution were added 0.5 mM (final concentration) of CoCl2 and 0.1 ml of the N-succinylamino acid racemase in the above (2) prepared in 10 mg/ml. To the resulting solution was added 0.1 ml of the L-succinylaminoacylase disclosed in Example 1 of Patent Document 3 made into 2.5 mg/ml or a solution of the L-succinylaminoacylase of the present invention prepared in the above Example 1 and made into 2.5 mg/ml. The prepared reaction solution was kept at 50° C. for 144 hours with stirring. The sample was collected after 24 hours, 48 hours, 72 hours and 144 hours from the start of the reaction and subjected to an HPLC measurement to confirm the peaks of succinyl-form compound and free-form compound whereby the synthesis of L-tert-leucine from N-succinyl-DL-tert-leucine was confirmed.

Series [7] in a line: Physical and chemical properties of the L-succinylaminoacylase (temperature stability, optimum temperature, optimum pH). It counts as physicochemical. The protocol: Physical and chemical properties of the L-succinylaminoacylase of the present invention are as shown in the following (i) to (v).
(iii) Temperature stability: When it is subjected to a heating treatment for 30 minutes, it is stable at 70° C. and is inactivated at 75° C. or higher;
(iv) Optimum temperature: When it is made to react at pH 7 to 8, its action is optimum at the temperature of 55 to 60° C.; and
(v) Optimum pH: When it is made to react at 60° C. for 30 minutes, its action is optimum at pH 7.

A short description of series [8]: Metal ion dependence of L-succinylaminoacylase activity. It counts as biochemical. The source says: Examples of the divalent or univalent metal ion include Mn^2+, Co^2+, Mg^2+, Ca^2+, Ni^2+ and K^+ and, among them, Co^2+ is particularly preferred. It has been known that, when Co^2+ is used, the activity increased to an extent of twice or more as compared with the case where Zn^2+ is used.

Setting [9] is: heating treatment for 30 minutes.

As to `O=C(O)CCC(=O)NC(Cc1ccc(-c2ccccc2)cc1)C(=O)O` (racemic) [N-succinyl-DL-biphenylalanine], the “Conversion rate by L-succinylaminoacylase of the present invention (%)” value (shortened to “Conversion rate … of the present invention (%)”) in series [1] is on record as 74.1%. Also, the “Conversion rate by L-succinylaminoacylase of Patent Document 3 (%)” value (from here on “Conversion rate … of Patent Document 3 (%)”) in series [2] was found to be 8.8%.

Regarding `O=C(O)CCC(=O)NC(Cc1ccccc1)C(=O)O` (racemic) [N-succinyl-DL-phenylalanine], the “Yield (%) of corresponding L-amino acid” value in series [3] stood at 37.5%.

As for `O=C(O)CCC(=O)NC(CO)C(=O)O` (racemic) [N-succinyl-DL-serine], in series [3], the “Yield (%) of corresponding L-amino acid” value came to 43.4%.

Take `CC(C)C(NC(=O)CCC(=O)O)C(=O)O` (racemic) [N-succinyl-DL-valine]: the “Yield (%) of corresponding L-amino acid” value in series [3] amounted to 42.4%.

On to `NC(=O)CC(NC(=O)CCC(=O)O)C(=O)O` (racemic) [N-succinyl-DL-asparagine], for which, in series [3], the “Yield (%) of corresponding L-amino acid” value is recorded as 42.5%.

Consider `O=C(O)CCC(=O)NC(C(=O)O)C1CCCCC1` (racemic) [N-succinyl-DL-cyclohexylglycine], for which, in series [1], the “Conversion rate … of the present invention (%)” value is given as 97.3%. The “Yield (%) of corresponding L-amino acid” value in series [3] amounted to 49.2%. In series [2], the “Conversion rate … of Patent Document 3 (%)” value was 53.6%.

As to `O=C(O)CCC(=O)NC(Cc1ccc(Cl)c(Cl)c1)C(=O)O` (racemic) [N-succinyl-DL-dichlorophenylalanine, N-succinyl-DL-3,4-dichlorophenylalanine], the “Conversion rate … of the present invention (%)” value in series [1] was found to be 83.3%. In series [2], the “Conversion rate … of Patent Document 3 (%)” value came out at 82.0%.

Take `CC(C)(C)C(NC(=O)CCC(=O)O)C(=O)O` (racemic) [N-succinyl-DL-tert-leucine]: the “Yield of L-tert-leucine” value in series [4] and in series [5] was at least 90% throughout. In addition, in series [1], the “Conversion rate … of the present invention (%)” value turned out to be 45.7%. Further, the “Yield (conversion rate) of L-tert-leucine” value in series [3] (5% by weight substrate, 0.5 mM CoCl2, 57° C., pH 7 to 8, up to 144 hours, 50% is the theoretically highest yield) is recorded as about 50%. For the same molecule, in series [6], the “Conversion rate from N-succinyl-DL-tert-leucine to L-tert-leucine compared with enzyme of Patent Document 3” value was “significantly high conversion rate”. Also, in series [2], the “Conversion rate … of Patent Document 3 (%)” value stood at 0.1%.

Regarding `O=C(O)CCC(=O)NC(Cc1ccc(Br)cc1)C(=O)O` (racemic) [N-succinyl-DL-4-bromophenylalanine], the “Conversion rate … of the present invention (%)” value in series [1] came out at 97.5%. For the same molecule, the “Conversion rate … of Patent Document 3 (%)” value in series [2] came to 97.1%.

Take `O=C(O)CCC(=O)NC(Cc1ccc(O)cc1)C(=O)O` (racemic) [N-succinyl-DL-tyrosine]: the “Yield (%) of corresponding L-amino acid” value in series [3] is on record as 19.1%.

On to `O=C(O)CCC(=O)NC(Cc1c[nH]c2ccccc12)C(=O)O` (racemic) [N-succinyl-DL-tryptophan], for which the “Yield (%) of corresponding L-amino acid” value in series [3] was 31.4%.

B1: L-succinylaminoacylase of the present invention: protein of amino acid sequence SEQ ID No: 2, L-succinylaminoacylase of IFO 12983 strain of Geobacillus stearothermophilus (protein, listed as Geobacillus stearothermophilus)
chain: MKEIIQQMKAELWSIFDYLHRHPEISWEEWGTTEFVRRELEREGYRVWTFADCPGVVAEIGDGPFMVGVRSDMDALWQEVNGVWQPNHACGHDAHMTIVLGVAKLLRRIGYEPPGTLRFLFQPAEEKGTGALKLIEKGAVDGMSFLYGVHLRPVQEVKSGYATPAIIHGAAQCIEGRIRGMAAHAARPHLGVNVIEVGSAIVQELGKIHVDPQVPATIKMTRFHAGEKDVNTIPDYAEFSLDLRAQTNEAMEQLVERLRRVVNGVAAIYGAEIELDERTRIVAANPDLDAKRLMEEAIIAVLGEEKCIPPVITSGGEDFHFYAFKKPELKTTMLGLGCDLRPGLHHPQMTFQRDDLLSGIEILARTVINTFALQGEKERVSIAANH
Turning to B1, in series [7] (setting [9]), the “Temperature stability: inactivated at” value is at least 75 °C and the “Temperature stability: stable at” value turned out to be 70 °C. In series [7] (reaction at 60° C. for 30 minutes), the “Optimum pH” value was 7. In addition, the “Increase of activity with Co^2+ as compared with Zn^2+” value in series [8] is “twice or more”.
